Assay results from US11419869B2, “Dosage forms and regimens for amino acid compounds” (Pliant Therapeutics, Inc., priority 2019, dated 2022).

Tests used:
Col1a1 expression [1] = assay: lung slice Col1a1 expression versus DMSO control slices; conditions: FIG. 6A; compared to the DMSO vehicle control slices
lung Col1a1 expression [2] = assay: Precision cut lung slices, chronic bleomycin, versus pirfenidone and nintedanib (Example B10); format: cell-based, mice; conditions: 7 days culture, vs DMSO vehicle, FIG. 6A
Experimental: (§1) Mice (C57BL/6) were administered 3 U/kg of bleomycin (Teva Pharmaceuticals; North Wales, Pa.) on Day 0 and 1 U/kg of bleomycin on days 14, 28, 42 and 56 via oropharyngeal aspiration while under anesthesia. At day 70, 14 days following the final bleomycin insult, precision cut lung slices were obtained. Following euthanization, 2% low gelling temp agarose was injected into the mouse lungs via the trachea. […] The lobes were then subjected to precision slicing to obtain samples for culture using a microtome (Compresstome VF-300-0Z, Precisionary; Greenville, N.C.). Individual slices were distributed in a multiwell culture plate and cultured for 7 days under control (DMSO) and test compound conditions. The viability of the slices over the course of culturing was confirmed by WST-1 assay of mitochondrial activity.
During the culture period, slices in the control group were treated with DMSO and slices in the test group were treated with a DMSO solution of one of compound 5; nintedanib; pirfenidone; a combination of nintedanib and compound 5; a combination of pirfenidone and compound 5; or the small molecule ALK5 inhibitor. Compound 5 was […] effective to equal or exceed its respective IC50 values at αvβ6 and αvβ1. The small molecule ALK5 inhibitor was analyzed at […] its reported IC50 value. Nintendanib and pirfenidone were analyzed at concentrations 10× their reported therapeutic concentrations.

COL1A1 expression [3] = assay: Precision cut lung slices from human IPF explants, COL1A1 expression (Example B11); format: cell-based; conditions: for expression of COL1A1 (treatment alone): PCLS from 5-7 IPF lung samples, seven days, nintedanib 75 nM, pirfenidone 50 μm
From the text: Explanted lung tissue was obtained from human IPF subjects and inflated with agarose as described in the preceding examples. Biopsy cores were obtained from the agarose-inflated lung tissue. The biopsy cores were subjected to precision slicing to obtain several hundred μm thick. Individual slices were distributed in a multiwell culture plate and cultured for […] under control (DMSO) and test compound conditions. The viability of the slices over the course of culturing was confirmed by WST-1 assay of mitochondrial activity.
PCLS from 5-7 idopathic pulmonary fibrosis (IPF) lung tissue samples were cultured for seven days with one of: DMSO; Compound 5 at 200 nM; nintedanib at 75 nM; pirfenidone at 50 μm; a combination of Compound 5 at 200 nM and nintedanib at 75 nM; a combination of Compound 5 at 200 nM and pirfenidone at […]; or an Alk5 inhibitor at 1 μm. […] FIG. 6D is a bar graph showing relative expression of COL1A1 in precision cut lung slices (PCLS) from idopathic pulmonary fibrosis (IPF) lung tissue upon exposure to Comopund 5, clinical standard of care compounds nintedanib (Nin) and pirfenidone (Pirf), and an ALK5 inhibitor, all versus DMSO control.
PCLS from a single IPF lung tissue sample were cultured for seven days with Compound 5 at concentrations of […], 2 nM, 60 nM, 200 nM, and 1 μM, along with 0.1% DMSO control and an Alk5 inhibitor at 1 μM. […] COL1A1 expression is also graphed for the PCLS in the presence of 0.1% DMSO control, and an Alk5 inhibitor at 1 μM.

[4] = treatment of IPF; cited from earlier work
[5] = system: Type I Collagen gene Col1a1 expression; assay: Precision cut lung slices, mice under acute bleomycin exposure (Example B8); format: cell-based; conditions: 3 days culture, normalized to DMSO, FIG. 5A
Experimental: Mice (C57BL/6) were administered 3 U/kg of bleomycin (Teva Pharmaceuticals; North Wales, Pa.) on day 0 via oropharyngeal aspiration while under anesthesia. On day 14, precision cut lung slices were obtained. Following euthanization, 2% low gelling temp agarose was injected into the mouse lungs via the trachea. […] The lobes were then subjected to precision slicing to obtain samples for culture using a microtome (Compresstome VF-300-0Z, Precisionary; Greenville, N.C.). Individual slices were distributed in a multiwell culture plate and cultured for 3 days under control (DMSO) and test compound conditions.

lung Col1a1 expression [6] = assay: Precision cut lung slices, mice under chronic bleomycin exposure (Example B9); format: cell-based; conditions: 7 days culture, normalized to DMSO, FIG. 5B
Experimental: as §1, with “after” for “following”
During the culture period, slices in the control group were treated with DMSO and slices in the test group were treated with a DMSO solution of one of: the selective antibody αvβ6 inhibitor 3G9; the αvβ1-selective small molecule inhibitor; a combination of the selective antibody αvβ6 inhibitor 3G9 and the αvβ1-selective small molecule inhibitor; compound 5; and the small molecule ALK5 inhibitor. The selective αvβ1 and αvβ6 integrin inhibitors were analyzed at ≥their respective IC90 concentrations for inhibition of TGF-beta activation. […]

SMILES | lung Col1a1 expression (Col1a1 expression [1]) | lung slice Col1a1 expression (lung Col1a1 expression [2]) | expression of COL1A1 (treatment alone) (COL1A1 expression [3]) | side effects [4] | therapeutic efficacy [4] | Type I Collagen gene Col1a1 expression [5] | lung Col1a1 expression (lung Col1a1 expression [6]) | lung Col1a1 expression (COL1A1 expression [3]; human IPF slices, 3 days, 3G9 ≥400 ng/mL, compound 5 179 nM, ALK5 inhibitor 1 μM, FIG. 6C)
COC(=O)c1ccc2c(c1)NC(=O)/C2=C(\Nc1ccc(N(C)C(=O)CN2CCN(C)CC2)cc1)c1ccccc1 [nintedanib] | slight increase | slight increase | did not significantly reduce | numerous side effects | less therapeutic efficacy than desired |  |  | 
Cc1ccc(=O)n(-c2ccccc2)c1 [pirfenidone] | slight increase | slight increase | did not significantly reduce | numerous side effects | less therapeutic efficacy than desired |  |  | 
Cc1cccc(-c2n[nH]cc2-c2ccc(F)c(-c3cnn(CCO)c3)c2)n1 [small molecule ALK5 inhibitor, 4-[2-Fluoro-5-[3-(6-methyl-2-pyridinyl)-1H-pyrazol-4-yl]phenyl]-1H-pyrazole-1-ethanol, reference compound] |  | substantial, statistically significant (p<0.0001 vs vehicle) decrease |  |  |  | greatest decrease | greatest decrease | decrease in lung Col1a1 expression
